Experimental data reported in patent publication US20240043818A1, “Engineered Cells for Increased Collagen Production” (Northeastern University, priority 2020, published 2024).

Tests used:
human dermal fibroblasts = details: cited from earlier work
rat liver M cells = details: concentration in media as low as 1 ng/ml; cited from earlier work
corneal fibroblasts = test: Media additive screening (Phase 1) and full factorial DOE (Phase 2), collagen production by SirCol; type: cell-based; details: Phase 1 screening
Method: Based on a weighted scoring (Table 13), the seven best additives were selected and were added to the fibroblast media separately in a Phase 1 screening study using concentrations presented in Table 14. […] For this study a three-level design was chosen in order to determine a maxima. This phase of the experiment determined which additives have a statistically significant effect on collagen production and what concentration of each additive has the highest positive impact.
The seven additives also allowed for minimizing the number of plates and maximizing the number of used wells. […] In phase 1 of testing 7 media additives were tested at 3 concentrations with a sample size of 4 for each condition. Additives and concentrations used were determined by the prior research described above. Collagen amount per well was quantified, but cell counts were not performed. Collagen produced per cell was estimated based on the number of cells expected per well. Some groups fell below the SirCol standard curve range of 1-50 ug. These values were represented as 1.00 ug/100 uL and were assigned the lowest rating for efficacy in the resulting trade study.
For the three additives that advanced the highest ranking of each additive was used as the DOE centerpoint. Due to a lack of available stock, ACE low was substituted for ACE medium.
In phase 2 the top performing media additives were fed into a full factorial DOE. The concentrations used were determined by a variety of factors including a trade study, remaining laboratory supplies, and finally the lower cost associated with a lower concentration in a near-tie situation. A near-tie situation was defined by the group as concentrations of the same chemical that scored within 1% total score. […] For acetaldehyde, due to a stock issue the low concentration at 0.2 mM was chosen. For the 100% concentration limit needed to complete construction of the full-factorial DOE plan, each of these values was doubled, which corresponds to the medium conditions from phase 1.

any cell type = details: cited from earlier work
fibroblast migration = details: dose-dependent, 0.25 and 0.5 mM; cited from earlier work
[1] = system: baboon liver myofibroblasts; details: cited from earlier work
[2] = system: cell types including bovine, mouse, and human; details: cited from earlier work
human chondrocytes = details: cited from earlier work
human lung fibroblasts = details: 100 ng/mL; cited from earlier work
collagen production = details: cited from earlier work
[3] = system: myofibroblasts and fibroblasts; details: 50 mM; cited from earlier work
[4] = added to the culture media in concentrations up to 300 μM

Which “optimal concentration for collagen production” value (human dermal fibroblasts) does the source give for O=C(O)C1CCC=N1 (stereo not shown) [pyrroline-5-carboxylate] here?
The value was 1 mM.

What about the “time at which the effect on collagen production can be seen” value (human dermal fibroblasts) of the same molecule?
Its value is 6 h.

What about the “maximum increase of collagen production, % of the control value” (human dermal fibroblasts; optimal concentration of 1 mM) of the same molecule?
Its value is 260%.

Which “collagen production versus control” value (rat liver M cells) does the source give for “TGF-β1: Transforming Growth Factor Beta 1” here?
Its value is “unquantified increase”.

With O=C(O)[C@@H]1CCCN1 [Proline] as the molecule, how does the “maximum increase in collagen production compared to the control value” (human dermal fibroblasts; 5-10 mM in media) read?
The value was 200%.

With N#CCCN [BAPN, β-aminopropionitrile] as the molecule, how does the “collagen production versus control, single additive” value (corneal fibroblasts) read?
The value was “higher collagen production than the control”.

And the “adverse effects on cell viability, collagen synthesis, or non collagen protein synthesis” value (any cell type)?
Its value is “No research with any cell type has shown adverse effects”.

And the fibroblast migration (fibroblast migration)?
The fibroblast migration was “inhibited fibroblast migration”.

With CC=O [ACE, Acetaldehyde] as the molecule, how does the “collagen production versus control, single additive” value (corneal fibroblasts) read?
Its value is “higher collagen production than the control”.

What about the “levels of collagen produced” value (human dermal fibroblasts; [4]) of the same molecule?
Its value is “increase the levels of collagen”.

What about the “levels of collagen produced” value [1, 4] of the same molecule?
The value was “increase the levels of collagen”.

Which results are given for O=C1O[C@H]([C@@H](O)CO)C(O)=C1O [ASC, Ascorbic acid]?
collagen production versus control, single additive (corneal fibroblasts): higher collagen production than the control; production of collagen [2]: beneficial

With NC(=O)CC[C@H](N)C(=O)O [glutamine] as the molecule, how does the “maximum benefit for the production of collagen, % of the control” value (human dermal fibroblasts; at 250 μM) read?
Its value is ~300%.

With TGF-β as the molecule, how does the “concentration for maximum efficacy” value (human dermal fibroblasts) read?
The value was 12.5 ng/mL.

Which “lowest concentration needed for an observable, positive effect on collagen production” value (human chondrocytes) does the source give for “IL-1p: Interleukin type 1p as printed, glycoprotein associated with immune response” here?
Its value is 2.5 µM.

Which results are given for IGF-1: Insulin-like Growth Factor 1?
correlation between level in media and production of collagen (human dermal fibroblasts; manipulation of rat serum applied to media): positive correlation; maximum increase of collagen production from control (human lung fibroblasts): 300%

Which “increase of collagen production from the control” value (human dermal fibroblasts; glutamate-supplemented media) does the source give for N[C@@H](CCC(=O)O)C(=O)O [Glutamate] here?
The value was 400%.

Which collagen production (human dermal fibroblasts; 40 mM) does the source give for CC(O)C(=O)O (stereo not shown) [Lactate] here?
Its collagen production is “decrease collagen production”.

And the collagen production ([1]; 5 mM added to media)?
The collagen production was “statistically significant increase”.

With Cn1c(=O)c2c(ncn2C)n(C)c1=O [caffeine] as the molecule, how does the “effect on collagen production” value (collagen production; concentrations in media as little as 1-5 mM) read?
Its value is “negative effect”.

Which “effect on the level of collagen production” value [3] does the source give for CCO [ethanol] here?
Its value is “no direct effect”.

B1: IL-10: Interleukin, glycoprotein associated with immune response (protein, UniProt P22301 19-178, looked up)
Interleukin-10: SPGQGTQSENSCTHFPGNLPNMLRDLRDAFSRVKTFFQMKDQLDNLLLKESLLEDFKGYLGCQALSEMIQFYLEEVMPQAENQDPDIKAHVNSLGENLKTLRLRLRRCHRFLPCENKSKAVEQVKNAFNKLQEKGIYKAMSEFDIFINYIEAYMTMKIRN
For B1, which “effect on level of collagen production” value (collagen production) is on record?
The value was “reduce the level of collagen production”.

B2: IL-4: Interleukin, glycoprotein associated with immune response (protein, UniProt P05112 25-153, looked up)
Interleukin-4: HKCDITLQEIIKTLNSLTEQKTLCTELTVTDIFAASKNTTEKETFCRAATVLRQFYSHHEKDTRCLGATAQQFHRHKQLIRFLKRLDRNLWGLAGLNSCPVKEANQSTLENFLERLKTIMREKYSKCSS
With B2 as the molecule, how does the “maximum positive effect on collagen production, increase from control” value (collagen production) read?
Its value is 250%.
